Laboratory results from patent publication US12582614B2, “Composition for preventing, alleviating or treating sarcopenia, containing D-ribo-2-hexulose as active ingredient” (KYUNGPOOK NATIONAL UNIVERSITY INDUSTRY-ACADEMIC COOPERATION …, priority 2021, dated 2026).

Experiments:
Format in all cases: in vivo, C57BL/6J male mice
[1] = Liver and erythrocyte H2O2 content and TBARs; conditions: DRH supplementation; increase in NC vs YC
[2] = system: hepatic glucose-6-phosphatase (G6P); assay: Hepatic glucose-6-phosphatase measurement; conditions: DRH group vs NC group
myostatin = assay: IHC analysis of muscle tissue, myostatin; conditions: gastrocnemius muscle fibers, increase in NC vs YC
Description: (§1) For morphological tissue observation, parts of liver and muscle tissues were fixed with a 10% formaldehyde solution for 24 hours. Thereafter, the samples were subjected to replacement with the same solution twice, dehydrated twice with ethanol, embedded in paraffin, and treated with poly-L-lysine to prepare tissue slices having a thickness of 5 μm. For morphological analysis, among the prepared tissue sections, the liver tissue was stained with H&E and MT, and the muscle tissue was stained with H&E and Sirius red, and magnified 200 times under an optical microscope. For IHC analysis, the muscle tissue was stained with IGF-1 and Myostatin, and then observed under an optical microscope.

TNF-α, IL-4, IL-1β, IL-6 = assay: Plasma inflammatory cytokine levels; conditions: between the groups (YC, NC, DRH)
Description: (§2) For cytokine analysis, plasma cytokines (TNF-α, IL-1β, and IL-4) were measured with a Merck Millipore product (MCYTOMAG-70K, Merck, USA). Plasma (30 μL) from each mouse was analyzed in duplicate. Hormone analysis was performed using a cortisol and testosterone parameter assay kit (R&D Systems, USA).

aged mice [3] = assay: Weights of quadriceps, anterior tibialis and gastrocnemius tissues; conditions: per 100 g body weight, DRH group vs NC group
Description: (§3) Specifically, a negative control group (NC, n=7, American Institute of Nutrition AIN-93G Semisynthetic diet); a D-ribo-2-hexulose-treated group (D-ribo-2-hexulose; DRH, n=7; a portion of cellulose in AIN-93G was replaced with 3% D-ribo-2-hexulose). […] The dose of D-ribo-2-hexulose was set at 3% based on previous animal studies. In the previous studies, the dose of D-ribo-2-hexulose was determined to be 3% in order to investigate a biological effect at a lower dose than the dose. During the experiment, the mice had free access to distilled water, and the food intakes and body weights of the mice were measured weekly, and blood glucose was measured once every 4 weeks. All animal experiments were approved by the Animal Research Ethics Committee of KyungPook National University (Approval Number: KNU-2020-109).

[4] = Lipid profiles of muscles and plasma
Description: Plasma TG and TC analysis was performed using an enzyme kit (Asan Pharmaceutical Co., Ltd., Korea). Free fatty acid (FFA) was also measured using an enzyme kit (Abcam., USA). Liver and muscle lipids were extracted, and the dried lipid residue was then dissolved in 1 mL of ethanol for the measurement of TG, TC, and FFA. For emulsification, Triton X-100 and a sodium cholate solution were added to 200 μL of the dissolved lipid solution. The TG, TC, and FFA were analyzed in the same kit as the enzyme kit used for plasma lipid analysis.

[5] = Muscle and liver glycogen and fasting blood glucose
Description: as §3

[6] = system: insulin-like growth factor 1 (IGF-1); assay: IHC analysis of muscle tissue, IGF-1; conditions: reduction in NC vs YC
Description: as §1

[7] = system: Mitochondrial respiratory chain complexes; assay: BN-PAGE of mitochondrial respiratory chain complexes; conditions: quadriceps mitochondria, vs NC group
Description: Mitochondria were isolated from the quadriceps muscle using the Potter-Elvehjem method. To extract respiratory SCs, a sample buffer cocktail was prepared using 8 μL of digitonin (Invitrogen, USA) per 50 μg of protein, 4×5 μL of a sample buffer (Invitrogen, USA) per 50 μg of protein, and 7 μL of water per 50 μg of protein. Thereafter, the solution was mixed with mitochondria. The BN-PAGE run and transfer were performed. An Ox-Phos Rodent WB antibody cocktail (Invitrogen, USA) was reacted at room temperature for 2 hours. Then, a secondary antibody solution Alk-Phos (Invitrogen, USA) was reacted at room temperature for an hour. Immunoreactive bands were developed using chromogen (BCIP/NBT). Then, the bands in a final state were checked.

GSH, PON, GR = assay: Antioxidant enzyme activity in liver and plasma; conditions: DRH supplementation; decrease in NC vs YC
Description: To analyze antioxidant activity, superoxide dismutase (SOD) activity was measured in an alkaline state by pyrogallol autoxidation using a modified method of Marklund et al. Also, catalase (CAT) activity was measured using a modified method of Aebi et al. Paraoxonase (PON) activity was measured using a modified method of Mackness et al. in order to measure an increase in absorbance of p-nitrophenol. Glutathione reductase (GR) activity was measured using a modified method of Pinto and Bartley, which was used to measure NADPH oxidation. Total glutathione (GSH) content was measured using a modified method of Ellman et al.

aged mice [8] = assay: Fat and muscle weight
aged mice [9] = assay: Left hind leg thickness (digital calipers); conditions: week 12, DRH group vs NC group
Description: The thicknesses of left hind legs were measured using Bluetec digital calipers (Korea, BLUETEC, BD500) every 4 weeks during the experiment period, and the leg thickness was divided by the body weight of each mouse in order to minimize differences between individuals (mm/100 g× body weight).

[10] = Testosterone and cortisol levels
Description: as §2

**Q.** Which “liver H2O2 content” value [1] does the source give for `O=C(CO)[C@H](O)[C@H](O)[C@H](O)CO` [DRH, D-ribo-2-hexulose] here?
**A.** Its value is “significantly reduced”.

**Q.** And the “hepatic glucose-6-phosphatase (G6P)” value [2]?
**A.** The value was “significantly increased”.

**Q.** What about the “expression level of myostatin” value (myostatin) of the same compound?
**A.** The value was “suppressed this increase to the level of the YC group”.

**Q.** And the “level of inflammatory cytokine IL-1β” value (TNF-α, IL-4, IL-1β, IL-6)?
**A.** The value was “not significantly different”.

**Q.** What about the “level of inflammatory cytokine IL-4” value (TNF-α, IL-4, IL-1β, IL-6) of the same compound?
**A.** Its value is “not significantly different”.

**Q.** And the “level of inflammatory cytokine IL-6” value (TNF-α, IL-4, IL-1β, IL-6)?
**A.** Its value is “not significantly different”.

**Q.** And the “level of inflammatory cytokine TNF-α” value (TNF-α, IL-4, IL-1β, IL-6)?
**A.** Its value is “not significantly different”.

**Q.** What about the “weight of the left anterior tibialis” value (aged mice [3]) of the same compound?
**A.** Its value is “significantly increased”.

**Q.** And the “weights of the right and left quadriceps” value (aged mice [3])?
**A.** The value was “significantly increased”.

**Q.** What about the “muscle fatty acid level” value ([4]; DRH group vs NC group) of the same compound?
**A.** The value was “no significant difference”.

**Q.** What about the “muscle total cholesterol (TC) level” value ([4]; DRH group vs NC group) of the same compound?
**A.** The value was “no significant difference”.

**Q.** And the plasma fatty acids ([4]; DRH group vs NC group)?
**A.** Its plasma fatty acids is “significantly decreased”.

**Q.** What about the “plasma TC level” value ([4]; increase in NC vs YC) of the same compound?
**A.** Its value is “improved”.

**Q.** What about the “plasma TG level” value ([4]; increase in NC vs YC) of the same compound?
**A.** The value was “improved”.

**Q.** And the “muscle triglyceride (TG) level” value ([4]; increase with aging)?
**A.** The value was “significantly reduced this increase”.

**Q.** What about the “fasting blood glucose level” value ([5]; at 12 weeks, DRH group vs NC group) of the same compound?
**A.** Its value is “significantly decreased”.

**Q.** What about the liver glycogen content ([5]; between the groups) of the same compound?
**A.** Its liver glycogen content is “not significantly different”.

**Q.** What about the muscle glycogen content ([5]; quadriceps, between the groups) of the same compound?
**A.** The muscle glycogen content was “not significantly different”.

**Q.** What about the “expression level of IGF-1” value [6] of the same compound?
**A.** Its value is “improved this reduction”.

**Q.** What about the “mitochondrial respiratory chain Complex IV” value [7] of the same compound?
**A.** The value was “significantly increased”.

**Q.** What about the “liver GR activity” value (GSH, PON, GR) of the same compound?
**A.** Its value is “increased”.

**Q.** And the “liver GSH-Px activity” value (GSH, PON, GR)?
**A.** Its value is “increased”.

**Q.** What about the “liver PON activity” value (GSH, PON, GR) of the same compound?
**A.** Its value is “increased”.

**Q.** And the “plasma PON activity” value (GSH, PON, GR)?
**A.** Its value is “increased”.

**Q.** And the “ratio of the total weight of muscle tissue to the total weight of adipose tissue” value (aged mice [8]; DRH group vs NC group)?
**A.** The value was “significantly increased”.

**Q.** What about the “total weight of muscle tissue” value (aged mice [8]; DRH group vs NC group) of the same compound?
**A.** Its value is “no significant difference”.

**Q.** What about the fat weight (aged mice [8]; DRH supplementation) of the same compound?
**A.** Its fat weight is “reduced”.

**Q.** And the “thicknesses of the left hind legs” value (aged mice [9])?
**A.** The value was “significantly increased”.

**Q.** What about the cortisol level ([10]; DRH group) of the same compound?
**A.** The cortisol level was “decreased”.

**Q.** And the testosterone level ([10]; DRH group vs NC group)?
**A.** The testosterone level was “did not show a significant difference”.
